Measurements as given in ChEMBL document CHEMBL3045310, “Synthesis of new benzotriazepin-5(2H)-one derivatives of expected antipsychotic activity” (Med Chem Res, 2013).
Calls of active or inactive are those of the source. The calls are words filed in the database; no cut-off is given here.

Key:
Mus musculus [1] = test: Antipsychotic activity in Mus musculus albino (mouse) assessed as ptosis at 3 mg/kg, ip relative to control; type: functional; details: route intraperitoneal
Mus musculus [2] = test: Neurotoxicity against Mus musculus albino (mouse) at 3 mg/kg, ip after 30 min by rotarod test; type: toxicity, organism-based; design: dose 3 mg/kg, route intraperitoneal; details: in vivo, 0.5 h
Mus musculus [3] = test: CNS depressant activity in Mus musculus albino (mouse) assessed as immobility time at 3 mg/kg, ip measured after 24 hr by forced swim test (reference value: 120 +/- 5.1 secs); type: functional; details: route intraperitoneal
Mus musculus [4] = test: Neurotoxicity against Mus musculus albino (mouse) assessed as inability to climb horizontal screen at 3 mg/kg, ip after 30 min by horizontal screen test relative to control; type: toxicity, organism-based; design: dose 3 mg/kg, route intraperitoneal; details: in vivo, 0.5 h
Mus musculus [5] = test: Neurotoxicity against Mus musculus albino (mouse) assessed as fall from horizontal screen at 3 mg/kg, ip after 30 min by horizontal screen test relative to control; type: toxicity, organism-based; design: dose 3 mg/kg, route intraperitoneal; details: in vivo, 0.5 h
Mus musculus [6] = test: Anticonvulsant activity in Mus musculus albino (mouse) assessed as inhibition of PTZ-induced seizure at 3 mg/kg, ip administered 1 hr prior to PTZ-challenge measured after 2 to 4 min relative to control; type: functional, organism-based; design: dose 3 mg/kg

CN1c2ccccc2C(=O)NN(c2ccccc2)C1c1ccccc1[N+](=O)[O-] (configuration not stated) was tested, and the Activity (Mus musculus [1]) was 0%, the Activity (Mus musculus [2]) was “Toxic” and the Time (Mus musculus [3]) was 141 s. For the same compound, the Activity (Mus musculus [4]) was 16.7%, the Activity (Mus musculus [5]) was 16.7% and the inhibition (Mus musculus [6]) was “inactive”.
For CN1CCN(C2=Nc3cc(Cl)ccc3Nc3ccccc32)CC1 [CLOZAPINE], the Activity (Mus musculus [1]) was 100%, the Activity (Mus musculus [2]) was “Toxic” and the Time (Mus musculus [3]) was 194 s. For the same compound, the Activity (Mus musculus [4]) was 16.7%, the Activity (Mus musculus [5]) was 50% and the inhibition (Mus musculus [6]) was “inactive”.
For COc1ccc(C2N(C)c3ccccc3C(=O)NN2c2ccccc2)cc1 (configuration not stated), the Activity (Mus musculus [1]) was 75%, the Activity (Mus musculus [2]) was “Toxic” and the Time (Mus musculus [3]) was 141 s. For the same compound, the Activity (Mus musculus [4]) was 0%, the Activity (Mus musculus [5]) was 16.7% and the inhibition (Mus musculus [6]) was “inactive”.
For CN1CN(C(=O)c2ccncc2)NC(=O)c2ccccc21, the Activity (Mus musculus [1]) was 100%, the Activity (Mus musculus [2]) was “Toxic” and the Time (Mus musculus [3]) was 190 s. For the same compound, the Activity (Mus musculus [4]) was 16.7%, the Activity (Mus musculus [5]) was 33.3% and the inhibition (Mus musculus [6]) was “inactive”.
For CN1CN(c2ccccc2)NC(=O)c2ccccc21, the Activity (Mus musculus [1]) was 100%, the Activity (Mus musculus [2]) was “Toxic” and the Time (Mus musculus [3]) was 178 s. The Activity (Mus musculus [4]) was 0%, the Activity (Mus musculus [5]) was 50% and the inhibition (Mus musculus [6]) was “inactive”.
For COc1cc(C2N(C)c3ccccc3C(=O)NN2c2ccccc2)cc(OC)c1OC (configuration not stated), the Activity (Mus musculus [1]) was 50%, the Activity (Mus musculus [2]) was “Non-toxic” and the Time (Mus musculus [3]) was 135 s. The Activity (Mus musculus [4]) was 0%, the Activity (Mus musculus [5]) was 0% and the inhibition (Mus musculus [6]) was “inactive”.
CN1c2ccccc2C(=O)NN(c2ccccc2)C1c1ccc(Br)cc1 (configuration not stated) was tested, and the Activity (Mus musculus [1]) was 0%, the Activity (Mus musculus [2]) was “Toxic” and the Time (Mus musculus [3]) was 140 s. The Activity (Mus musculus [4]) was 16.7%, the Activity (Mus musculus [5]) was 16.7% and the inhibition (Mus musculus [6]) was “inactive”.
For CN1c2ccccc2C(=O)NN(c2ccccc2)C1c1ccc(O)cc1 (configuration not stated), the Activity (Mus musculus [1]) was 75%, the Activity (Mus musculus [2]) was “Toxic” and the Time (Mus musculus [3]) was 151 s. For the same compound, the Activity (Mus musculus [4]) was 0%, the Activity (Mus musculus [5]) was 16.7% and the inhibition (Mus musculus [6]) was “inactive”.
With CN1c2ccccc2C(=O)NN(c2ccccc2)C1c1ccc([N+](=O)[O-])cc1 (configuration not stated) the Activity (Mus musculus [1]) was 50%, the Activity (Mus musculus [2]) was “Non-toxic” and the Time (Mus musculus [3]) was 125 s. For the same compound, the Activity (Mus musculus [4]) was 0%, the Activity (Mus musculus [5]) was 0% and the inhibition (Mus musculus [6]) was “inactive”.
CN1C(=S)N(c2ccccc2)NC(=O)c2ccccc21 was tested, and the Activity (Mus musculus [1]) was 100%, the Activity (Mus musculus [2]) was “Non-toxic” and the Time (Mus musculus [3]) was 129 s. The Activity (Mus musculus [4]) was 0%, the Activity (Mus musculus [5]) was 0% and the inhibition (Mus musculus [6]) was “inactive”.
For CN1c2ccccc2C(=O)NN(c2ccccc2)C1c1ccccc1 (configuration not stated), the Activity (Mus musculus [1]) was 0%, the Activity (Mus musculus [2]) was “Non-toxic” and the Time (Mus musculus [3]) was 118 s. For the same compound, the Activity (Mus musculus [4]) was 0%, the Activity (Mus musculus [5]) was 0% and the inhibition (Mus musculus [6]) was “inactive”.
CN1c2ccccc2C(=O)NN(c2ccccc2)C1c1ccc(Cl)cc1 (configuration not stated) was tested, and the Activity (Mus musculus [1]) was 50%, the Activity (Mus musculus [2]) was “Toxic” and the Time (Mus musculus [3]) was 156 s. The Activity (Mus musculus [4]) was 33.3%, the Activity (Mus musculus [5]) was 33.3% and the inhibition (Mus musculus [6]) was “inactive”.
